Literature values in paper PMC11528414 (Journal of the American Chemical Society, 2024).

Tested on: PANC-1
Details: read-out: Reported Anticancer Activity PANC-1 (IC50); reported values

In the case of `C[N+]1=C2C=C(NCCc3ccc(O)cc3)C(=O)c3[nH]cc(c32)CC1` [makaluvamine J], the IC50 is given as 54 nM.
